Holding throughout (type): cell-based
Experiment [1] deals with T1, human prostanoid TP receptor (Homo sapiens, UniProt P21731).
T1 construct: expressed in transfected cells
T1 sequence (P21731 1-343): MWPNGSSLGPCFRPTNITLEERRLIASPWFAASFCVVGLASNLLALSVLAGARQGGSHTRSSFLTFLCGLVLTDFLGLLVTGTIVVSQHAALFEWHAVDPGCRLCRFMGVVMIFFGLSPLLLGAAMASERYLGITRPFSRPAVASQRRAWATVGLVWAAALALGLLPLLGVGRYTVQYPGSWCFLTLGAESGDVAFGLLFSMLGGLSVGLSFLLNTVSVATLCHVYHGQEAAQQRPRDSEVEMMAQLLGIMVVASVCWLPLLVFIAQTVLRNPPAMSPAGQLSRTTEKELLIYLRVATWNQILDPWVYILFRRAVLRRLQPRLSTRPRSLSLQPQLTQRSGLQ
In words: FLIPR Ca2+ signaling PG antagonist assay, TP stable cell line. As to conditions: HEK-293 EBNA cells, human recombinant TP, no exogenous G-protein; standard agonist U-46619. The procedure:
(§1) The above compounds were tested for PG antagonist activity as follows using human recombinant prostanoid receptor (DP1, EP1-4, FP, IP and TP) stable cell lines: In order to measure the response of Gs and Gi coupled prostanoid receptors as a Ca^2+ signal, chimeric G protein cDNAs were used. Stable cell lines over-expressing human prostanoid DP1, EP1-4, FP, IP, and TP receptors were established as follows:
(§2) Briefly, human prostanoid DP1, EP2, and EP4 receptor cDNAs were co-transfected with chimeric Gqs cDNA containing a haemagglutanin (HA) epitope; human prostanoid EP3 receptors were co-transfected with chimeric Gqi-HA; human EP1, FP, IP, and TP receptor cDNAs were expressed with no exogenous G-proteins. Gqs and Gqi chimeric cDNAs (Molecular Devices, Sunnyvale, Calif., U.S.A.), as well as cDNAs of prostanoid receptors, were cloned into a pCEP4 vector with a hygromycin B selection marker. Transfection into HEK-293 EBNA (Epstein-Barr virus nuclear antigen) cells was achieved by the FuGENE 6 transfection Reagent (Roche Applied Science, Indianapolis, Ind., USA). Stable transfectants were selected according to hygromycin resistance. Because Gqs and Gqi contained an HA epitope, G-protein expression was detected by Western blotting analysis using anti-mouse HA monoclonal antibody and horseradish peroxidase (HRP)-conjugated secondary antibody, while functional expression of prostanoid receptors was detected by FLIPR screening (Matias et al., 2004). These stable cell lines were validated using previously published antagonists at 10 μM against serial dilutions of standard agonists by FLIPR functional assays for Ca^2+ Signaling (as described below).
(§3) Ca^2+ signaling studies were performed using a FLIPR TETRA system (Molecular Devices, Sunnyvale, Calif., USA) in the 384-format. This is a high-throughput instrument for cell-based assays to monitor Ca^2+ signaling associated with GPCRs and ion channels. Cells were seeded at a density of 5×10^4 cells/well in BioCoat poly-D-lysine coated, black wall, clear bottom 384-well plates (BD Biosciences, Franklin lakes, NJ, USA) and allowed to attach overnight in an incubator at 37° C. The cells were then washed twice with HBSS-HEPES buffer (Hanks' balanced salt solution without bicarbonate and phenol red, 20 mM HEPES, pH 7.4) using an ELx405 Select CW Microplate Washer (BioTek, Winooski, Vt., USA). After 60 min of dye-loading in the dark using the Ca^2+-sensitive dye Fluo-4AM (Invitrogen, Carlsbad, Calif., USA), at a final concentration of 2×10^−6M, the plates were washed 4 times with HBSS-HEPES buffer to remove excess dye and leaving 50 μl of buffer in each well. The plates were then placed in the FLIPR TETRA instrument and allowed to equilibrate at 37° C. Compounds were added in a 25 μl volume to each well to give final concentrations of 0.1 μM, 0.3 μM, 1 μM, 3 μM, 10 μM, and 30 μM; or 0.067 μM, 0.1 μM, 0.2 μM, 0.3 μM, 0.67 μM, and 1 μM for cells over-expressing TP receptors. After 4.5 minutes, a 7-point serial dilution of the standard agonist for the corresponding receptor, in a 25 μl volume was injected at the final concentrations from 10^−11M to 10^−5M in 10-fold serial dilution increments for cells expressing human recombinant DP1, EP1, EP2, EP3, EP4, FP, and IP receptors. The dose range for the standard agonist for human recombinant TP receptors was from 10^−12M to 10^−6M. HBSS-HEPES buffer was used as the negative control for the standard agonists. Cells were excited with LED (light emitting diode) excitation at 470-495 nm and emission was measured through an emission filter at 515-575 nm. Assay plates were read for 3.5 minutes using the FLIPR^TETRA. The peak increase in fluorescence intensity was recorded for each well. On each plate, negative controls, dose response of positive controls, and co-treatments of antagonist-agonist for each dose were in triplicates. Standard agonists were as follows: DP=BW 245C, EP1-EP4=PGE2, FP=17-phenyl-PGF2α, IP=Cicaprost, and TP=U-46619. […]

Experiment [2] deals with T2, human prostanoid IP receptor (Homo sapiens, UniProt P43119).
T2 construct: expressed in transfected cells
T2 sequence (P43119 whole entry): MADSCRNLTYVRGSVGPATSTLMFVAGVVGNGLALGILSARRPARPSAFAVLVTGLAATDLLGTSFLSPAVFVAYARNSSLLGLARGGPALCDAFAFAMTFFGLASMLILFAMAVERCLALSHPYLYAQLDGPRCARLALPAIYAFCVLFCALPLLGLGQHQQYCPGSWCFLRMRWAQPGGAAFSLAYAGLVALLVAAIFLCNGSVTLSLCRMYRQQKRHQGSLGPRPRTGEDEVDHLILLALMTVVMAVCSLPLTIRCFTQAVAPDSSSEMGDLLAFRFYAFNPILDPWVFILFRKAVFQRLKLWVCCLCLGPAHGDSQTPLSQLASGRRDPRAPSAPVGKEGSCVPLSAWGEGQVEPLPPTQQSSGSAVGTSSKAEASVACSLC
In words: FLIPR Ca2+ signaling PG antagonist assay, IP stable cell line. The conditions noted are these: HEK-293 EBNA cells, human recombinant IP, no exogenous G-protein; standard agonist Cicaprost. The procedure:
as §1, §2, §3

Experiment [3] deals with T3, human prostanoid DP1 receptor (Homo sapiens, UniProt Q13258).
T3 construct: expressed in transfected cells
T3 sequence (Q13258 1-359): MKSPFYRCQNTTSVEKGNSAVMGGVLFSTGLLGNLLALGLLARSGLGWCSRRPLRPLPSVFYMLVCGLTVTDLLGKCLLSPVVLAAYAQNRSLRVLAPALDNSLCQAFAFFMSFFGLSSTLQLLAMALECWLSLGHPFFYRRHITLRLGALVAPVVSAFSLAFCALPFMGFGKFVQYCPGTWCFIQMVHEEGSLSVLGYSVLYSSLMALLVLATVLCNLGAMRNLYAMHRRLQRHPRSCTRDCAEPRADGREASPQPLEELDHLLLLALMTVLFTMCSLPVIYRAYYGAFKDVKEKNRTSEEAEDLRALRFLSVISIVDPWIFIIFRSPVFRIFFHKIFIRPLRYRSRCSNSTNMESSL
As to the kind of experiment: FLIPR Ca2+ signaling PG antagonist assay, DP1 stable cell line. The conditions noted are these: HEK-293 EBNA cells, human recombinant DP1 with chimeric Gqs; standard agonist BW 245C; read-out: DP (Kb, PG antagonist activity). The procedure:
as §1, §2, §3

Experiment [4] concerns the target T4, human prostanoid FP receptor (Homo sapiens, UniProt P43088).
T4 construct: expressed in transfected cells
As to the kind of experiment: FLIPR Ca2+ signaling PG antagonist assay, FP stable cell line. As to conditions: HEK-293 EBNA cells, human recombinant FP, no exogenous G-protein; standard agonist 17-phenyl-PGF2α. The procedure: as §1, §2, §3

T4 sequence (P43088 whole entry): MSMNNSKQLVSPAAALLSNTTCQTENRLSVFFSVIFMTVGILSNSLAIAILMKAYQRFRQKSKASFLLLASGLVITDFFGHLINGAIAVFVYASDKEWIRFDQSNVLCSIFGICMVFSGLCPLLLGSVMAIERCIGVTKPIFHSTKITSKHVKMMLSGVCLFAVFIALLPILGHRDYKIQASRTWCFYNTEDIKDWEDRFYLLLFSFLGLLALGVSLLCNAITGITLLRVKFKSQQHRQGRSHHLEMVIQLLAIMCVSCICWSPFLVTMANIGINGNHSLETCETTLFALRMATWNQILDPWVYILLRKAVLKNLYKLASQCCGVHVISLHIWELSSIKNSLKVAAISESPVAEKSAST

“1-(5-Bromo-2-Isobutoxy-Benzyl)-1H-Pyrrolo[2,3-B]Pyridine-5-Carboxylic Acid [Example 30]”: the Kb in experiment [1] was 5 nM; in experiment [2] it was 6000 nM.
On to `CC(C)COc1ccc(Br)cc1Cn1cc2ccc(C(=O)O)cc2n1` [Example 43, 2-(5-Bromo-2-Isobutoxy-Benzyl)-2H-Indazole-6-Carboxylic Acid], for which the Kb in experiment [1] was 110 nM; in experiment [3] it was 2000 nM; in experiment [2], 4900 nM; in experiment [4], 2200 nM.
With `CCC(CC)COc1ccc(OC(F)(F)F)cc1Cn1ccc2cc(C(=O)O)cnc21` [Example 76, 1-[2-(2-Ethyl-Butoxy)-5-Trifluoromethoxy-Benzyl]-1H-Pyrrolo[2,3-B]Pyridine-5-Carboxylic Acid], the Kb in experiment [1] amounted to 20 nM; in experiment [2], 1400 nM.
As for “1-[5-Bromo-2-(2-Ethyl-Butoxy)-Benzyl]-1H-Pyrrolo[2,3-B]Pyridine-5-Carboxylic Acid [Example 31]”, the Kb in experiment [2] amounted to 520 nM.

Source of the values: US10988474B2, “Compounds acting at multiple prostaglandin receptors giving a general anti-inflammatory response” (ALLERGAN, INC., priority 2011, dated 2021).
